In patent US6756410B2, “Induction of LDL receptor expression by extracellular-signal regulated kinase, ERK-1/2” (priority 2000, dated 2004):
Entries after “also recorded” stand apart in the source; their conditions may differ.

Columns and labels:
HepG2-ΔRaf-1:ER cells [1] = assay: Growth curves of HepG2-ΔRaf-1:ER cells (cell counting); format: cell-based, human; details: 1 μM ICI182,780
Experimental: (§1) Log-phase cells were seeded at 10^5 cells per 60 mm dish. After 36 h the medium was changed to medium containing either 1 μM ICI182,780 or no ICI182,780. At the indicated times, cells were trypsinized and counted.

HepG2-ΔRaf-1:ER cells [2] = assay: Colony staining (colony formation); format: cell-based, human; details: maintained with ICI182,780; results not shown
Experimental: Cells were seeded at a density of 10,000 cells per 60 mm dish and maintained with or without ICI182,780 for varying periods. Colonies were stained by addition of 0.5 ml methylene blue solution for 30 min followed by washing.

HepG2 cells = assay: Growth curves of HepG2 cells (cell counting); format: cell-based, human; details: 1 μM ICI182,780
Experimental: as §1

LDL receptor = LDL receptor mRNA expression, Northern blot in HepG2-ΔRaf-1:ER cells; format: cell-based, human
Experimental: Northern blotting was done under identical conditions to measure RNA levels of LDL receptor, SS, and actin genes.
Total RNA was analyzed by Northern blot for measuring LDL receptor mRNA levels.
LDL receptor and SS mRNA levels were determined by Northern blotting. Results shown are indicative of two separate experiments.
Cells either untreated or pretreated with different concentrations of sterols (1, 2 or 5 μg/ml 25-hydroxycholesterol and 10 μg/ml cholesterol) were induced with ICI182,780 (1 μM) for 4 h. Total RNA was subjected to Northern blotting to determine mRNA levels of LDL receptor and squalene synthase.
Total RNA was isolated by the TRIzol reagent (GIBCO-BRL), according to the manufacturer's protocol. RNA was stored under ethanol. Aliquots containing 20 μg RNA were electrophoresed through a 1%-agarose-formaldehyde gel and transferred to a nylon membrane (BioRad) followed by hybridization. Hybridization probes for LDL receptor, actin, and SS, labeled with ^32P, were prepared using the M13 universal primer. Hybridizations were performed at 45° C., and after final washing at 55° C. for 30 min, filters were exposed to Kodak x-ray film. The relative intensities of specific bands were determined densitometrically within the linear range of film on a model 300A laser densitometer (Molecular Dyanamics) using Image Quant software.

HepG2-ΔRaf-1:ER cells [3] = assay: DNA synthesis, [3H]thymidine incorporation; format: cell-based, human; details: ICI182,780 0 to 1 μM for 18 h or 1 μM over time
Experimental: Cells in a 24-well dishes were either treated with different ICI182,780 concentrations from 0 to 1 μM for 18 h (top panel) or with 1 μM of ICI182,780 for time periods as indicated in the abscissa of the graph (bottom panel). DNA synthesis was measured by the incorporation of [^3H]thymidine during the final 4 h. Each point represents the mean of three determinations and is representative of at least two independent experiments.
Proliferation was measured with the [^3H]thymidine uptake assay (Amersham), with [^3H]thymidine (1.0 μCi/ml) present in the medium for 4 h prior to harvesting.

[4] = test system: human LDL receptor promoter; assay: LDL receptor promoter-luciferase reporter (construct A) in HepG2-ΔRaf-1:ER cells; format: cell-based; details: for transcriptional (activating) effect of ICI182,780 on the human LDL receptor promoter in presence of inhibitor: 1 μM ICI182,780, PD98059 50 μM, staurosporine 1 μM, curcumin 20 μM
Experimental: HepG2-ΔRaf-1:ER cells were cotransfected with LDL receptor promoter-luciferase reporter (plasmid A) and β-galactosidase-reporter. After 24 hours, cells were grown in a medium containing 0.2% serum for 12 h, followed by addition of 1 μM ICI182,780 for the last 24 h in the absence or presence of indicated inhibitor. […] Sterols (2 μg/ml 25-hydroxycholesterol and 10 μg/ml cholesterol) were added to examine sensitivity to sterols. After the treatment both luciferase and β-galactosidase activities were measured according to the method previously described (24). The results are presented as means ±S.E. and represent at least three individual experiments.
A human low density lipoprotein receptor promoter-luciferase construct A (24) was used to determine the response of the low density lipoprotein receptor promoter to activation of the p42/44^MAPK pathway. HepG2-ΔRaf-1:ER cells were transfected with 0.6 μg of reporter plasmid and 0.25 μg of SV-βGal plasmid by lipofectamine technique, as described previously (Mehta et al., 1996). Cells were washed after 12 h, and after another 12 h the cells were treated with 1 μM ICI182,780 for 36 h, and the controls were treated with ethanol. PBS-washed cells were harvested in 250 mM Tris-Cl, pH 7.5, and lysed in the lysis buffer. The luciferase activities of the cell lysates were measured according to the manufacture's recommendations (Promega). Luciferase assays were carried out in triplicate. In FIG. 6, the data are shown as means of three experiments and the fold induction represents the difference between the means of the samples with ICI182,780 and that of the control. Luciferase activity was normalized for β-galactosidase activity.
To study the role of serine/threonine protein kinases in the activation of the LDL receptor promoter by p42/44^MAPK, HepG2 cells were transiently transfected with construct A. Sixteen hours after transfection, the cells were treated for 1 h with the indicated inhibitor, and then with ICI182,780 in the continued presence of inhibitor.
Because the primary effect of p42/44^MAPK activation is exerted at the transcriptional levels, it was next determined whether ICI182,780 treatment modulated activity of the low density lipoprotein receptor promoter. A low density lipoprotein receptor promoter/luciferase reporter construct A (Mehta et al., 1996), containing promoter sequences from −273 to +35, was transfected into HepG2-ΔRaf-1:ER cells. Both sets of transfected cells were exposed to ICI182,780 for 36 h, after which luciferase activity was determined.

HepG2-ΔRaf-1:ER cells [5] = assay: Light microscopic examination of cell morphology; format: cell-based; details: 1 μM ICI182,780, 24 h
Experimental: Cells treated with 1 μM of the ICI182,780 for 24 h were examined by optical microscopy. […] Representative photomicrographs of HepG2-ΔRaf-1:ER cells either untreated or treated with ICI182,780 were taken at low and high cell density regions of the cultured plate by using microscope.
The phenotype seen in ICI182,780-treated cells may resemble the situation of terminal differentiation, in which cells (for example, neurons) show differentiation in the absence of DNA replication.

p42/44^MAPK = assay: p42/44MAPK phosphorylation, immunoblot with phospho-specific antibody in HepG2-ΔRaf-1:ER cells; format: cell-based, human
Experimental: HepG2 cells were treated with indicated doses of ICI182,780 for 4 hours. Phospho-specific p42/44^MAPK antibody was used to monitor p42/44^MAPK phosphorylation/activation, and phosphorylation-independent p42/44^MAPK antibody was used to measure total p42/44^MAPK protein.
(§2) Cells were scraped in phosphate-buffered saline (PBS) and centrifuged, and the pellet was resuspended in lysis buffer (50 mM Tris-Cl [pH 7.5], 150 mM NaCl, 10 mM MgCl2, 1 mM dithiothreitol, 10 mM NaF, 0.5 mM Na3VO4, 0.5% Nonidet P-40, 10 μg of aprotinin/ml, and 100 μg of phenylmethylsulfonyl fluoride per ml). Protein concentration was measured by the Bio-Rad protein assay. Protein (30 to 50 μg) was resolved by sodium dodecyl sulfate-polyacrylamide gel electrophoresis (SDS-PAGE) and transferred onto Immobilon P membranes (Millipore). The filter was blocked in 2.5% skim milk with 0.1% Tween 20 in PBS for 2 h followed by incubation with the specific antibody. The following antibodies were used: polyclonal rabbit antibodies against phosphorylation-independent p42/44^MAPK, phospho-specific-p42/44^MAPK, and phospho-specific or phosphorylation-independent Raf-1 kinase. Reactive proteins were detected with horseradish peroxidase-conjugated secondary antibodies and visualized with an ebb enhanced chemiluminescence detection kit (Amersham Pharmacia Biotech).

cyclin A = assay: Cyclin A protein expression, immunoblot; format: cell-based, human; details: 1 μM ICI182,780
Experimental: (§3) Cells were cultured in the absence or presence of 1 μM ICI182,780. Equal amounts of total protein (40 μg) were resolved by SDS-PAGE, transferred to Immobilon P membrane and probed with antibodies specific for cyclin A and p21^Cip.
as §2

p21^Cip1 = assay: p21Cip protein expression, immunoblot; format: cell-based, human
Experimental: as §3, §2

HepG2-ΔRaf-1:ER cells [6] = assay: Cell cycle analysis by propidium iodide FACS; format: cell-based, human; details: 1 μM ICI182,780, 18 h and 36 h
Experimental: The percentage of cells in the G1, S and G2 phases of the cell cycle is given for the control and ICI182,780 treated cells.
Cells (5×10^5) were seeded on 100 mm dishes and 2 days later the medium was replaced with medium containing 1 μM ICI182,780. After 18 h and 36 h, attached cells were trypsinized, centrifuged, washed in phosphate-buffered saline, resuspended in 1 ml phosphate-buffered saline, fixed in 1 ml of cold ethanol for overnight at 4° C., centrifuged again, washed once with saline, and resuspended in 0.1% bovine serum albumin containing 50 μg/ml ribonuclease and 50 μg/ml propidium iodide (Sigma), and then analysed in a fluoroscence-activated cell sorter (FACSORT, Becton Dickinson). Data were analysed using the Cellfit program.

Raf-1 kinase = Raf-1 kinase phosphorylation, immunoblot in HepG2-ΔRaf-1:ER cells; format: cell-based, human; details: 30 min pretreatment, then 1 μM ICI182,780
Experimental: Total cell extracts were subjected to immunoblotting using the phosphorylation-independent and phospho-specific Raf-1 kinase antibodies. The same blot was later probed with the phospho-specific p42/44^MAPK antibody.
as §2

[7] = clone B, ICI182,780 0 to 1 μM, 4 hours
[8] = 30 min pretreatment, then 1 μM ICI182,780

In the case of `C[C@]12CC[C@@H]3c4ccc(O)cc4C[C@@H](CCCCCCCCC[S+]([O-])CCCC(F)(F)C(F)(F)F)[C@H]3[C@@H]1CC[C@@H]2O` (some centres unmarked) [ICI182,780], the “cell growth of HepG2-ΔRaf-1:ER cells” value (HepG2-ΔRaf-1:ER cells [1]) is reported as “arrested the growth”, the “ability to form colonies” value (HepG2-ΔRaf-1:ER cells [2]) is reported as “reduced their ability to form colonies” and the “cell growth of HepG2 cells” value (HepG2 cells) is reported as “no growth arrest”. The “time of maximal induction of LDL receptor expression” value (LDL receptor; 1 μM ICI182,780, 1 to 16 h) was 3 to 4 h, the “increase in LDL receptor expression” value (LDL receptor; [7]) was “dependent on ICI182,780 concentration” and the “DNA synthesis ([3H]thymidine incorporation)” value (HepG2-ΔRaf-1:ER cells [3]) was “inhibition of DNA synthesis”. For the same molecule, the “lowest concentration at which promoter activation was detected” value ([4]; construct A) was 0.5 µM, the “increase of luciferase expression driven by the LDL receptor promoter” value ([4]; construct A (-273 to +35), 1 μM ICI182,780 for 36 h, normalized for β-galactosidase) was 4 to 6 fold and the “luciferase activity, promoterless luciferase vector” value ([4]; transfected cells containing the promoterless luciferase vector, ICI182,780 treatment) was “virtually no change in luciferase activity”. The “morphological appearance of treated cells” value (HepG2-ΔRaf-1:ER cells [5]) was “larger with neuronal like structures (i.e. filopodia), and less refractile than untreated cells”, the “signs of cell stress or death” value (HepG2-ΔRaf-1:ER cells [5]) was “no indication that ICI-treated cells were under stress or dying; also recorded: did not exhibit membrane blebbing and/or increase in the number of rounded and/or detached cells” and the “time at which p42/44MAPK phosphorylation was clearly detected” value (p42/44^MAPK; 1 μM ICI182,780, 1 to 16 h) was 1 h. For the same molecule, the “time of maximal p42/44MAPK phosphorylation response” value (p42/44^MAPK; 1 μM ICI182,780, 1 to 16 h) was 2 h, the “increase in p42/44MAPK phosphorylation” value (p42/44^MAPK; [7]) was “dependent on ICI182,780 concentration” and the “cyclin A protein expression” value (cyclin A) was “strong down-regulation”. For the same molecule, the “duration of sustained high p21Cip1 levels” value (p21^Cip1; 1 μM ICI182,780) was “at least 24 h”, the p21Cip1 expression (p21^Cip1; 1 μM ICI182,780, between 30 and 120 min of treatment) was “strong increase” and the cell cycle distribution (HepG2-ΔRaf-1:ER cells [6]) was “modest increase in the fraction of cells found in the G2/M phase with a concomitant decrease in S phase”.

With `COc1cccc(-c2cc(=O)c3ccccc3o2)c1N` [PD98059, 2-(2′-amino-3′-methoxyphenyl)-oxanaphthalene-4-one] the “p42/44MAPK induced LDL receptor expression after PD98059” value (LDL receptor; PD98059 pretreatment 30 min, then 1 μM ICI182,780) was “significantly inhibited”, the “transcriptional (activating) effect of ICI182,780 on the human LDL receptor promoter in presence of inhibitor” value (“transcriptional … of inhibitor” below) [4] was “suppressed” and the “p42/44MAPK phosphorylation and activation after PD98059” value (p42/44^MAPK; 20 μM PD98059 for 30 min before ΔRaf-1:ER activation, data not shown) was “inhibited phosphorylation and activation”.

For `COc1cc(C=CC(=O)CC(=O)C=Cc2ccc(O)c(OC)c2)ccc1O` [curcumin, 1,7-bis [4-hydroxy-3-methoxyphenyl]-1,6-heptadiene-3,5-dione], the “increase in LDL receptor expression caused by ICI182,780 in presence of curcumin” value (LDL receptor; 60 μM curcumin, endogenous gene) was “totally suppressed”, the “time of treatment at which the blocking effect was complete” value (LDL receptor; curcumin, kinetic studies) was 4 to 6 h and the “transcriptional … of inhibitor” value [4] was “completely suppressed”. For the same molecule, the “ICI182,780-dependent p42/44MAPK activation in presence of curcumin” value (p42/44^MAPK; curcumin before 1 μM ICI182,780) was “without affecting”.

For `CN[C@@H]1C[C@H]2O[C@@](C)([C@@H]1OC)n1c3ccccc3c3c4c(c5c6ccccc6n2c5c31)C(=O)NC4` [staurosporine], the “Raf-1 kinase phosphorylation after staurosporine pretreatment” value (Raf-1 kinase) was “inhibition of phosphorylation”, the “ICI182,780-induced LDL receptor expression after staurosporine pretreatment” value (LDL receptor; [8]) was “loss of LDL receptor induction” and the “transcriptional … of inhibitor” value [4] was “suppressed”. For the same molecule, the “ICI182,780-induced p42/44MAPK phosphorylation after staurosporine pretreatment” value (p42/44^MAPK; [8]) was “inhibition of phosphorylation”.
